# In US10364247B2, “Preparation and use of novel protein kinase inhibitors” (Ruijin Hospital Affiliated to Shanghai Jiao Tong University …, priority 2015, dated 2019):
# Assays:
# Assay in all cases: KINOMEscan competition binding
# [1] = molecular target: ABL1(E255K)-phosphorylated (Homo sapiens, UniProt P00519, E255K); conditions: read-out: Percent Control
# Procedure, shortened: (§1)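 Values are % Ctrl from a primary single-concentration (10 μM) competition binding screen; lower % Ctrl indicates tighter binding.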
# [2] = molecular target: ABL1(T315I)-nonphosphorylated (Homo sapiens, UniProt P00519, T315I); conditions: read-out: Percent Control
# Procedure, shortened: as §1
# [3] = molecular target: ABL1(T315I)-phosphorylated (Homo sapiens, UniProt P00519, T315I); conditions: read-out: Percent Control
# Procedure, shortened: as §1
# [4] = molecular target: T1, ABL1(Y253F)-phosphorylated (Homo sapiens, UniProt P00519, Y253F); conditions: read-out: Percent Control
# T1 construct: purchased KINOMEscan (panel service)
# Procedure, shortened: as §1
# ABL1-phosphorylated = ABL1-phosphorylated (Homo sapiens, UniProt P00519); conditions: read-out: Percent Control
# Procedure, shortened: as §1
# ALK = molecular target: T2, ALK (Homo sapiens, UniProt Q9UM73); conditions: read-out: Percent Control
# T2 construct: purchased KINOMEscan (screening service)
# Procedure, shortened: as §1
# AURKC = molecular target: T3, AURKC (Homo sapiens, UniProt Q9UQB9); conditions: read-out: Percent Control
# T3 construct: purchased KINOMEscan (screening service)
# Procedure, shortened: as §1
# BRK = BRK (Homo sapiens, UniProt Q13882); conditions: BRK (Entrez PTK6), read-out: Percent Control
# Procedure, shortened: as §1
# CIT = molecular target: T4, CIT (Homo sapiens, UniProt O14578); conditions: read-out: Percent Control
# T4 construct: purchased KINOMEscan (panel service)
# Procedure, shortened: as §1
# [5] = molecular target: EGFR(L747-E749del, A750P) (Homo sapiens, UniProt P00533, A750P/DEL747-749); conditions: read-out: Percent Control
# Procedure, shortened: as §1
# [6] = molecular target: EGFR(L747-S752del, P753S) (Homo sapiens, UniProt P00533, DEL747-752/P753S); conditions: read-out: Percent Control
# Procedure, shortened: as §1
# EGFR(L858R, T790M) = molecular target: T5, EGFR(L858R, T790M) (Homo sapiens, UniProt P00533, L858R/T790M); conditions: read-out: Percent Control
# T5 construct: purchased KINOMEscan (screening platform)
# Procedure, shortened: as §1
# EGFR(S752-I759del) = EGFR(S752-I759del) (Homo sapiens, UniProt P00533, DEL752-759); conditions: read-out: Percent Control
# Procedure, shortened: as §1
# EPHB6 = EPHB6 (Homo sapiens, UniProt O15197); conditions: read-out: Percent Control
# Procedure, shortened: as §1
# FAK = FAK (Homo sapiens, UniProt Q05397); conditions: FAK (Entrez PTK2), read-out: Percent Control
# Procedure, shortened: as §1
# FGFR1 = FGFR1 (Homo sapiens, UniProt P11362); conditions: read-out: Percent Control
# Procedure, shortened: as §1
# FLT3(D835H) = FLT3(D835H) (Homo sapiens, UniProt P36888, D835H); conditions: read-out: Percent Control
# Procedure, shortened: as §1
# FLT3(D835Y) = molecular target: T6, FLT3(D835Y) (Homo sapiens, UniProt P36888, D835Y); conditions: read-out: Percent Control
# T6 construct: purchased KINOMEscan (screening service)
# Procedure, shortened: as §1
# FLT3(ITD) = conditions: 10 μM
# Procedure, shortened: as §1
# HPK1 = HPK1 (Homo sapiens, UniProt Q92918); conditions: HPK1 (Entrez MAP4K1), read-out: Percent Control
# Procedure, shortened: as §1
# KIT(L576P) = KIT(L576P) (Homo sapiens, UniProt P10721, L576P); conditions: read-out: Percent Control
# Procedure, shortened: as §1
# KIT(V559D, T670I) = KIT(V559D, T670I) (Homo sapiens, UniProt P10721, T670I/V559D); conditions: read-out: Percent Control
# Procedure, shortened: as §1
# LOK = LOK (Homo sapiens, UniProt O94804); conditions: LOK (Entrez STK10), read-out: Percent Control
# Procedure, shortened: as §1
# LYN = molecular target: T7, LYN (Homo sapiens, UniProt P07948); conditions: read-out: Percent Control
# T7 construct: purchased KINOMEscan (panel service)
# Procedure, shortened: as §1
# MEK4 = MEK4 (Homo sapiens, UniProt P45985); conditions: MEK4 (Entrez MAP2K4), read-out: Percent Control
# Procedure, shortened: as §1
# MEK5 = MEK5 (Homo sapiens, UniProt Q13163); conditions: MEK5 (Entrez MAP2K5), read-out: Percent Control
# Procedure, shortened: as §1
# MLK1 = MLK1 (Homo sapiens, UniProt P80192); conditions: MLK1 (Entrez MAP3K9), read-out: Percent Control
# Procedure, shortened: as §1
# PIP5K1C = molecular target: T8, PIP5K1C (Homo sapiens, UniProt O60331); conditions: read-out: Percent Control
# T8 construct: purchased KINOMEscan (screening service)
# Procedure, shortened: as §1
# RET(V804L) = molecular target: T9, RET(V804L) (Homo sapiens, UniProt P07949, V804L); conditions: read-out: Percent Control
# T9 construct: purchased KINOMEscan (panel service)
# Procedure, shortened: as §1
# SIK2 = molecular target: T10, SIK2 (Homo sapiens, UniProt Q9H0K1); conditions: read-out: Percent Control
# T10 construct: purchased KINOMEscan (screening service)
# Procedure, shortened: as §1
# TAK1 = molecular target: T11, TAK1 (Homo sapiens, UniProt O43318); conditions: TAK1 (Entrez MAP3K7), read-out: Percent Control
# T11 construct: purchased KINOMEscan (panel service)
# Procedure, shortened: as §1
# TIE1 = TIE1 (Homo sapiens, UniProt P35590); conditions: read-out: Percent Control
# Procedure, shortened: as §1
# TIE2 = TIE2 (Homo sapiens, UniProt Q02763); conditions: TIE2 (Entrez TEK)
# Procedure, shortened: as §1
# TRPM6 = molecular target: T12, TRPM6 (Homo sapiens, UniProt Q9BX84); conditions: read-out: Percent Control
# T12 construct: purchased KINOMEscan (screening platform)
# Procedure, shortened: as §1
# p38-beta = p38-beta (Homo sapiens, UniProt Q15759); conditions: p38-beta (Entrez MAPK11), read-out: Percent Control
# Procedure, shortened: as §1
# MLK1, sequence (P80192 whole entry): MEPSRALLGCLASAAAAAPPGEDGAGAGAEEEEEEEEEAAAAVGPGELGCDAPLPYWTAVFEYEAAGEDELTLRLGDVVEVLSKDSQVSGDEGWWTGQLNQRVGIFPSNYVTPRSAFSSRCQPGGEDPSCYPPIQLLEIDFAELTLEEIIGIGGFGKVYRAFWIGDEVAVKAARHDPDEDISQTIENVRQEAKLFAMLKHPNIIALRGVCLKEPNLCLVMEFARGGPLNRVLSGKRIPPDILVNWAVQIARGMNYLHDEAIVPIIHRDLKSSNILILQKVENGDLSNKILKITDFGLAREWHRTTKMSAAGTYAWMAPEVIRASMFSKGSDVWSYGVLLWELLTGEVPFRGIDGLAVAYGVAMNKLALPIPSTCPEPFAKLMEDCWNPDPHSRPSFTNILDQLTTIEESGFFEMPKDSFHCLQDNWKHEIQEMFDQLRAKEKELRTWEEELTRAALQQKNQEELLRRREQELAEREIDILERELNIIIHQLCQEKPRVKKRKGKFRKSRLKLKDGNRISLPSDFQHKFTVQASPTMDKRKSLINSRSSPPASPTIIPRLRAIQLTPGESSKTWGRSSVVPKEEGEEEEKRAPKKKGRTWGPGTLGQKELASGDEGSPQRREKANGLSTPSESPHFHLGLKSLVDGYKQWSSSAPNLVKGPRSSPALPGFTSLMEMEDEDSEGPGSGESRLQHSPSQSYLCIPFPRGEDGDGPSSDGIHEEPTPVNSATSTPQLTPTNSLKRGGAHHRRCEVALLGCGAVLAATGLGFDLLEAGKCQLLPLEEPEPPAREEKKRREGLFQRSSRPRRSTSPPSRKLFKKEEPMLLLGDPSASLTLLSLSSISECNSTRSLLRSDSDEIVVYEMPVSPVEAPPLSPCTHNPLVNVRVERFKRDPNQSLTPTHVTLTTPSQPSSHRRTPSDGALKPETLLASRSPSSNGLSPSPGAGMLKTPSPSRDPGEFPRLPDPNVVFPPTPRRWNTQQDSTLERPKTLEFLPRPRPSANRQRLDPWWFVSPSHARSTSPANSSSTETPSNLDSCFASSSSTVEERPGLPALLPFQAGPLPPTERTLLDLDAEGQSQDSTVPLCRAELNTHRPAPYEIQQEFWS
# T2 sequence (Q9UM73 19-1620): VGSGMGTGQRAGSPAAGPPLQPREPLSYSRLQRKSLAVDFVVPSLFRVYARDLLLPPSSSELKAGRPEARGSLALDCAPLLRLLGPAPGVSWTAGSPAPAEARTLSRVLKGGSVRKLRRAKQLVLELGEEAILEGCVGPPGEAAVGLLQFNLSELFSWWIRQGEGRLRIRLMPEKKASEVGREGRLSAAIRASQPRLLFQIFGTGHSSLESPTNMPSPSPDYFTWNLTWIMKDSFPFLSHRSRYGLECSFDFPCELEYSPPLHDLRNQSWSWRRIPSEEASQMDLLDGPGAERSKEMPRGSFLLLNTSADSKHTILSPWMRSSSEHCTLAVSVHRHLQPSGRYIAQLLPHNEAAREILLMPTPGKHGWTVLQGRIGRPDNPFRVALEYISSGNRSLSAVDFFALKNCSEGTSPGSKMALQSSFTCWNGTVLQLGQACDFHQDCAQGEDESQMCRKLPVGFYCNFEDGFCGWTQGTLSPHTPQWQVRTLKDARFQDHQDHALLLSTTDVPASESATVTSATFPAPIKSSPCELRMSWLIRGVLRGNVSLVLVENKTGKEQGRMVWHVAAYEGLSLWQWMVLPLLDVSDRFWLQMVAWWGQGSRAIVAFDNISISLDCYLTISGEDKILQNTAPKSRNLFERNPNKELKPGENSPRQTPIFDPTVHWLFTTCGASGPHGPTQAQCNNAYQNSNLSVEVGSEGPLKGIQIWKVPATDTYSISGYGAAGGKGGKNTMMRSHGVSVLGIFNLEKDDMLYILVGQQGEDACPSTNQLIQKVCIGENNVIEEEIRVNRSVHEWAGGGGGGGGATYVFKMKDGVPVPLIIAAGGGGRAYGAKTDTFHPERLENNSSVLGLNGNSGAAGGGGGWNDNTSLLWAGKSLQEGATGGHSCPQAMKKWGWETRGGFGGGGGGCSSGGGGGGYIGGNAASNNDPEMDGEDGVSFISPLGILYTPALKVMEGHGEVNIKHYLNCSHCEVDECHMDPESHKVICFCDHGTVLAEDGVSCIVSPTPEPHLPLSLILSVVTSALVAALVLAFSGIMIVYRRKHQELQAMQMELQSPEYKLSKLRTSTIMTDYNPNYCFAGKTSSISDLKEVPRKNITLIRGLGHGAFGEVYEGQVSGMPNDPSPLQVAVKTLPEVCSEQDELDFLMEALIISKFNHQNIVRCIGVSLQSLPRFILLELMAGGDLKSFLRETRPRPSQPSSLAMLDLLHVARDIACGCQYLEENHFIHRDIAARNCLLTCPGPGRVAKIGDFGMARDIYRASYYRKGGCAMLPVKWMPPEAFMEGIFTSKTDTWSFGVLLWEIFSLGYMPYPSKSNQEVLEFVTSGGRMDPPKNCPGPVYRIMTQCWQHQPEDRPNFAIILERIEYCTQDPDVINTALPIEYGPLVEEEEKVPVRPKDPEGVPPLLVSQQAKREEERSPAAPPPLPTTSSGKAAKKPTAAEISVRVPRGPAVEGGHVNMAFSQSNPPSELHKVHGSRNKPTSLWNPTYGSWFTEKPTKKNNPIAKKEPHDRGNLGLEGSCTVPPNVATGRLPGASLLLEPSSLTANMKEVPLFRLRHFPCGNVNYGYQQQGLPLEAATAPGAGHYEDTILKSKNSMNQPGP
# TIE2, sequence (Q02763 23-1124): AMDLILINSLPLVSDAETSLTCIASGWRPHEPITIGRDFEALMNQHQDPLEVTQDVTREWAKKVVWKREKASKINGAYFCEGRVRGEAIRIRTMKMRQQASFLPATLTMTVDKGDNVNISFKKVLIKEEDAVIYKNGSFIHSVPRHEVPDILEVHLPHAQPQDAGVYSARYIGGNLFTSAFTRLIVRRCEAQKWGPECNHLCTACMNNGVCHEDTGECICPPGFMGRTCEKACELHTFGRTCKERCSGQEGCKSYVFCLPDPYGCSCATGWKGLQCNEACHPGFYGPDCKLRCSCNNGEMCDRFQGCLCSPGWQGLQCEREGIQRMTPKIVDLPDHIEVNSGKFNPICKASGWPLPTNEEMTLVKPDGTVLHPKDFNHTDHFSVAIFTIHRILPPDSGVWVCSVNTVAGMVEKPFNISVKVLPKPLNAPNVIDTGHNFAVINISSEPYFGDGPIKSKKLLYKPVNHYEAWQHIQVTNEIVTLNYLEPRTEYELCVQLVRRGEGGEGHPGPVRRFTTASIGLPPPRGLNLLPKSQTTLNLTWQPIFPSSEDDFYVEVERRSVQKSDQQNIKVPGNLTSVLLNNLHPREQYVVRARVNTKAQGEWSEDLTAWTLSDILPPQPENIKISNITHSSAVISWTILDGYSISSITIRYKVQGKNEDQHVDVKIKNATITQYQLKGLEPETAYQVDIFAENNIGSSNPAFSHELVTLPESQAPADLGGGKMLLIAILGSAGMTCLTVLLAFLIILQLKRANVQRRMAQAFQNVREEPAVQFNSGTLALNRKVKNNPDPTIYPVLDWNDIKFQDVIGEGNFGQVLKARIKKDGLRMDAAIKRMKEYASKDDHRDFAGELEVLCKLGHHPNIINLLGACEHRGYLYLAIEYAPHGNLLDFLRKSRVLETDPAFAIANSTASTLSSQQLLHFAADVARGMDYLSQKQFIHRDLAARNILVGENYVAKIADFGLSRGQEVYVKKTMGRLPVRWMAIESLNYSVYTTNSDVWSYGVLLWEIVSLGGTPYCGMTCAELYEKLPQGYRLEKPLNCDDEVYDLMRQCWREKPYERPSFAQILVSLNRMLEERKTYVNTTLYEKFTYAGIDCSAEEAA
# T10 sequence (Q9H0K1 whole entry): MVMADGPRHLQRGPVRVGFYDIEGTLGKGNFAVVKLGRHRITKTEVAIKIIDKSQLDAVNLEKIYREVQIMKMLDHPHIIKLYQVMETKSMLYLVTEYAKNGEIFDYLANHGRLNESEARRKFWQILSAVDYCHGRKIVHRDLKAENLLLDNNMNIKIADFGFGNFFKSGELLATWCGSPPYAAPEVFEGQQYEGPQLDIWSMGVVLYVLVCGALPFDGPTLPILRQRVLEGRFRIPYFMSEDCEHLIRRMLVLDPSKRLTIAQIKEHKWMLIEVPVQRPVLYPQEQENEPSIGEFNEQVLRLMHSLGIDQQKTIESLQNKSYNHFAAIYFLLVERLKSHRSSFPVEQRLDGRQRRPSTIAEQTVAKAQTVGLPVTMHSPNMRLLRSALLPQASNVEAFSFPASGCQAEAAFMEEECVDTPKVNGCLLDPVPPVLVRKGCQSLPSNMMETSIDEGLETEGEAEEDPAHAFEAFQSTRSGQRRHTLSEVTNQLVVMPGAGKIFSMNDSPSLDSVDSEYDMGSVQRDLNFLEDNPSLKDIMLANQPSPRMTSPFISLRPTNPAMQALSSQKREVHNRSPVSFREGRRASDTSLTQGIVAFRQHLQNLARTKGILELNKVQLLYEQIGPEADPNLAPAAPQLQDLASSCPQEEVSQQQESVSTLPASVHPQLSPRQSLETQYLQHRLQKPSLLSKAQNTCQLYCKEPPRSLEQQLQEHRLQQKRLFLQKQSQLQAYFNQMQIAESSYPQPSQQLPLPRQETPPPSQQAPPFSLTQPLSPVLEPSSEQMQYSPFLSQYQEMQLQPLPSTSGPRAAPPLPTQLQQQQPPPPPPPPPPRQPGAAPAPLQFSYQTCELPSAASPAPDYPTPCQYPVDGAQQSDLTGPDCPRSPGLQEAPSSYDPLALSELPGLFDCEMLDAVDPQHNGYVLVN
# T3 sequence (Q9UQB9 whole entry): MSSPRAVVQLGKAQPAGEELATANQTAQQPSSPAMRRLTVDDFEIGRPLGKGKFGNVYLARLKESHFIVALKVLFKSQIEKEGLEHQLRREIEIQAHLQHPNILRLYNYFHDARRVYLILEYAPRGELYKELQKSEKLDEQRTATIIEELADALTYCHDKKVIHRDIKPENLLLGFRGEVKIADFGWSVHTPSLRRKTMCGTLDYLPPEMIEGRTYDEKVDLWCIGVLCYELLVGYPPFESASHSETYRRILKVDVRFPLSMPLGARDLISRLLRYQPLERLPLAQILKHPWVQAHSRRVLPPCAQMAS
compound,measurement,setting,value
"Cc1ccc(Nc2ncc3c(n2)N(C)CN(c2cc(NC(=O)c4cccc(C(F)(F)F)c4)ccc2C)C3)cn1 [IA-9, N-(4-methyl-3-(1-methyl-7-((6-methylpyridin-3-yl)amino)-1,4-dihydropyrimido[4,5-d]pyrimidin-3(2H)-yl)phenyl)-3-(trifluoromethyl)benzamide]",remaining binding at 10 µM,[1],1.2%
same,remaining binding at 10 µM,[2],0%
same,remaining binding at 10 µM,[3],4.1%
same,remaining binding at 10 µM,[4],0.15%
same,remaining binding at 10 µM,ABL1-phosphorylated,0.3%
same,remaining binding at 10 µM,ALK,22%
same,remaining binding at 10 µM,AURKC,6.9%
same,remaining binding at 10 µM,BRK,0.9%
same,remaining binding at 10 µM,CIT,0.1%
same,remaining binding at 10 µM,[5],0%
same,remaining binding at 10 µM,[6],0%
same,remaining binding at 10 µM,"EGFR(L858R, T790M)",24%
same,remaining binding at 10 µM,EGFR(S752-I759del),0%
same,remaining binding at 10 µM,EPHB6,0.3%
same,remaining binding at 10 µM,FAK,6.6%
same,remaining binding at 10 µM,FGFR1,1.3%
same,remaining binding at 10 µM,FLT3(D835H),3.2%
same,remaining binding at 10 µM,FLT3(D835Y),9%
same,Percent Control,FLT3(ITD),0.55 % Ctrl
same,remaining binding at 10 µM,HPK1,3.8%
same,remaining binding at 10 µM,KIT(L576P),1.2%
same,remaining binding at 10 µM,"KIT(V559D, T670I)",0.3%
same,remaining binding at 10 µM,LOK,0%
same,remaining binding at 10 µM,LYN,0.1%
same,remaining binding at 10 µM,MEK4,2%
same,remaining binding at 10 µM,MEK5,0.3%
same,remaining binding at 10 µM,MLK1,5.7%
same,remaining binding at 10 µM,PIP5K1C,21%
same,remaining binding at 10 µM,RET(V804L),0%
same,remaining binding at 10 µM,SIK2,21%
same,remaining binding at 10 µM,TAK1,0.1%
same,remaining binding at 10 µM,TIE1,5.6%
same,percent of control binding at 10 µM,TIE2,0.45%
same,remaining binding at 10 µM,TRPM6,26%
same,remaining binding at 10 µM,p38-beta,0%
